{
  "source": "paper PMC8778445",
  "about": "“HPLC-MS Profiling, Antioxidant, Antimicrobial, Antidiabetic, and Cytotoxicity Activities of Arthrocnemum indicum (Willd.) Moq. Extracts” (Plants, 2022)",
  "target": "T1, Intestinal Alpha-glucosidase type I (α-glucosidase)",
  "T1 construct": "gene MAL12; commercial enzyme (Sigma-Aldrich), no catalogue number",
  "test": "alpha-glucosidase inhibition assay",
  "format": "biochemical",
  "conditions": "positive control; 4-nitrophenyl β-d-glucopyranoside listed among reagents (beta anomer as printed); pH, temperature not given",
  "description": "alpha-glucosidase inhibition assay on Intestinal Alpha-glucosidase type I (α-glucosidase)",
  "data": [
    {"smiles": "C[C@H]1O[C@H](O[C@H]2[C@H](O)[C@@H](O)[C@@H](O[C@H]3[C@H](O)[C@@H](O)C(O)O[C@@H]3CO)O[C@@H]2CO)[C@H](O)[C@@H](O)[C@@H]1N[C@H]1C=C(CO)[C@@H](O)[C@H](O)[C@H]1O", "note": "(stereo partly shown) [acarbose]", "values": [
      {"measurement": "α-Glucosidase (IC50 mg/mL)", "result": "1.12 ± 0.08", "unit": "mg/mL"}
    ]}
  ]
}
